# Source: the NIST ThermoML archive (doi:10.1016/j.jct.2005.03.004)
# Numbers after ± are expanded uncertainties.
# Conditions: Liquid
compound,measurement,setting,value
CO [methanol],vapor or sublimation pressure,298.15 K,16.97 ± 0.046 kPa
same,vapor or sublimation pressure,303.15 K,21.88 ± 0.053 kPa
same,vapor or sublimation pressure,308.15 K,27.96 ± 0.066 kPa
same,vapor or sublimation pressure,313.15 K,35.44 ± 0.081 kPa
same,vapor or sublimation pressure,318.15 K,44.54 ± 0.099 kPa
same,vapor or sublimation pressure,323.15 K,55.58 ± 0.11 kPa
